Experimental findings from patent US9718817B2, “Aryl and heteroaryl ether compounds as ROR gamma modulators” (Glenmark Pharmaceuticals S.A., priority 2014, dated 2017) are described below.

This test concerns the target T1, GST-tagged ROR gamma ligand binding domain (LBD) (Homo sapiens, UniProt P51449).
T1 construct: purchased Invitrogen
T1 sequence (P51449 269-508 limits assumed): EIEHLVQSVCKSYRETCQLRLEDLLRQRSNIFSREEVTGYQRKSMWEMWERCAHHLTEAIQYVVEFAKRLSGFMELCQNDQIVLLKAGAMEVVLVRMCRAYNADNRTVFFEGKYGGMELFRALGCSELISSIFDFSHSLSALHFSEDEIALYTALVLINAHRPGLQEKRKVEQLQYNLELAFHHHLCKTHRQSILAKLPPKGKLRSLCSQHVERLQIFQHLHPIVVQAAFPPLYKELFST
As to the kind of experiment: TR-FRET assay for ROR gamma (LanthaScreen co-activator peptide recruitment). The class given is biochemical. Conditions: for IC50: class symbols, from dose response curve; for inhibition at 1 µM: compound 1 μM; for inhibition at 1 µM / inhibition at 10 µM: TR-FRET ratio 520/495, percent of control; for inhibition at 10 µM: compound 10 μM. The gist of the method:
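Antagonist mode: 10 nM GST-RORγ LBD pre-incubated with compound 1 h at 22 °C in 25 mM HEPES pH 7.4, 100 mM NaCl, 5 mM DTT, 0.01% BSA, 4% DMSO final. Then 300 nM fluorescein-D22 co-activator peptide plus 10 nM Tb-anti-GST added, 1 h at room temperature. IC50 by nonlinear regression of the 520/495 TR-FRET ratio as percent of no-compound control.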
(In general: TR-FRET usually uses a lanthanide donor and a delayed reading to cut background.)

For orientation: IC50 means the midpoint of a concentration-inhibition curve. A word on the inhibition: it is the percentage by which the read-out fell short of the control. In the case of `CCN(C(=O)C(C)(C)Oc1ccc(NC(=O)Cc2ccc(S(=O)(=O)CC)cc2)cc1)c1ccc(Cl)c(F)c1` [Example 130, N-(4-Chloro-3-fluorophenyl)-N-ethyl-2-(4-(2-(4-(ethylsulfonyl)phenyl)acetamido)phenoxy)-2-methylpropanamide], the IC50 is > 100 nM, the inhibition at 1 µM came out at 73% and the inhibition at 10 µM was 85.2%.

Consider `CCN(C(=O)C(C)(C)Oc1ccc(NC(=O)Cc2ccc(S(=O)(=O)CC)cc2)cc1F)c1ccc(Cl)c(F)c1` [Example 131, N-(4-Chloro-3-fluorophenyl)-N-ethyl-2-(4-(2-(4-(ethylsulfonyl)phenyl)acetamido)-2-fluorophenoxy)-2-methylpropanamide], for which the IC50 is 50 to 100 nM, the inhibition at 1 µM worked out at 69.8% and the inhibition at 10 µM amounted to 72.9%.

For the compound `CCN(C(=O)C(C)(C)Oc1ccc(F)cc1F)c1ccc(NC(=O)Cc2ccc(S(=O)(=O)CC)cc2)cc1` [Example 132, 2-(2,4-Difluorophenoxy)-N-ethyl-N-(4-(2-(4-(ethylsulfonyl)phenyl)acetamido)phenyl)-2-methylpropanamide], the inhibition at 1 µM worked out at 52.9% and the inhibition at 10 µM was 60.9%.

With `CCS(=O)(=O)c1ccc(CC(=O)Nc2ccc(OC3(c4ccc(Cl)cc4Cl)CCCCC3)cc2)cc1` [Example 134, N-(4-((1-(2,4-Dichlorophenyl)cyclohexyl)oxy)phenyl)-2-(4-(ethylsulfonyl)phenyl)acetamide], the IC50 was < 50 nM, the inhibition at 1 µM was 77.3% and the inhibition at 10 µM worked out at 81.1%.

For `CCS(=O)(=O)c1ccc(CC(=O)Nc2ccc(OC3(c4ccc(Cl)cc4Cl)CCCCC3)c(F)c2)cc1` [Example 135, N-(4-((1-(2,4-Dichlorophenyl)cyclohexyl)oxy)-3-fluorophenyl)-2-(4-(ethylsulfonyl)phenyl)acetamide], the IC50 was in the range of 50 to 100 nM, the inhibition at 1 µM amounted to 73.2% and the inhibition at 10 µM amounted to 77%.

Regarding `CCS(=O)(=O)c1ccc(CC(=O)Nc2ccc(OC3(c4ccc(Cl)cc4Cl)CCOCC3)c(F)c2)cc1` [Example 136, N-(4-((4-(2,4-Dichlorophenyl)tetrahydro-2H-pyran-4-yl)oxy)-3-fluorophenyl)-2-(4-(ethylsulfonyl)phenyl)acetamide], the IC50 was < 50 nM, the inhibition at 1 µM is 71.6% and the inhibition at 10 µM is 79.3%.

As for `CCS(=O)(=O)c1ccc(CC(=O)Nc2ccc(OC3(c4ccc(Cl)cc4Cl)CCCC3)c(F)c2)cc1` [Example 137, N-(4-((1-(2,4-Dichlorophenyl)cyclopentyl)oxy)-3-fluorophenyl)-2-(4-(ethylsulfonyl)phenyl)acetamide], the IC50 was < 50 nM, the inhibition at 1 µM turned out to be 80% and the inhibition at 10 µM came out at 86.5%.

On to `CCS(=O)(=O)c1ccc(CC(=O)Nc2ccc(OC3(c4ccc(Cl)cc4Cl)CC3)c(F)c2)cc1` [Example 138, N-(4-((1-(2,4-Dichlorophenyl)cyclopropyl)oxy)-3-fluorophenyl)-2-(4-(ethylsulfonyl)phenyl)acetamide], for which the IC50 was < 50 nM, the inhibition at 1 µM was found to be 86.8% and the inhibition at 10 µM turned out to be 83.6%.

On to `CCS(=O)(=O)c1ccc(CC(=O)Nc2ccc(OC3(c4ccc(Cl)cc4Cl)CCC3)c(F)c2)cc1` [Example 139, N-(4-((1-(2,4-Dichlorophenyl)cyclobutyl)oxy)-3-fluorophenyl)-2-(4-(ethylsulfonyl)phenyl)acetamide], for which the IC50 was < 50 nM, the inhibition at 1 µM worked out at 86.3% and the inhibition at 10 µM was 82.6%.

Regarding `CCS(=O)(=O)c1ccc(CC(=O)Nc2ccc(OC3(c4ccc(F)cc4F)CCCCC3)c(F)c2)cc1` [Example 140, N-(4-((1-(2,4-Difluorophenyl)cyclohexyl)oxy)-3-fluorophenyl)-2-(4-(ethylsulfonyl)phenyl)acetamide], the IC50 was < 50 nM, the inhibition at 1 µM was found to be 69.1% and the inhibition at 10 µM amounted to 72.8%.

Regarding `CCS(=O)(=O)c1ccc(CC(=O)Nc2ccc(OC3(c4ccc(F)cc4F)CCC3)c(F)c2)cc1` [Example 141, N-(4-(1-(2,4-Difluorophenyl)cyclobutoxy)-3-fluorophenyl)-2-(4-(ethylsulfonyl)phenyl)acetamide], the IC50 is < 50 nM, the inhibition at 1 µM stood at 81.4% and the inhibition at 10 µM amounted to 75.2%.

For the compound `CCS(=O)(=O)c1ccc(CC(=O)Nc2ccc(OC3(c4ccc(F)cc4F)COC3)c(F)c2)cc1` [Example 142, N-(4-((3-(2,4-Difluorophenyl)oxetan-3-yl)oxy)-3-fluorophenyl)-2-(4-(ethylsulfonyl)phenyl)acetamide], the IC50 was < 50 nM, the inhibition at 1 µM was 81.1% and the inhibition at 10 µM is 81.5%.

In the case of `CCn1c(C(C)(C)Oc2ccc(Cl)cc2Cl)nc2cc(NC(=O)Cc3ccc(S(=O)(=O)CC)cc3)ccc21` [Example 144, N-(2-(2-(2,4-Dichlorophenoxy)propan-2-yl)-1-ethyl-1H-benzo[d]imidazol-5-yl)-2-(4-(ethylsulfonyl)phenyl)acetamide], the IC50 is < 50 nM, the inhibition at 1 µM was determined as 90.6% and the inhibition at 10 µM amounted to 92.5%.

On to `CCS(=O)(=O)c1ccc(CC(=O)Nc2ccc3c(c2)nc(C(C)(C)Oc2ccc(F)cc2F)n3CCF)cc1` [Example 145, N-(2-(2-(2,4-Difluorophenoxy)propan-2-yl)-1-(2-fluoroethyl)-1H-benzo[d]imidazol-5-yl)-2-(4-(ethylsulfonyl)phenyl)acetamide], for which the IC50 is < 50 nM, the inhibition at 1 µM was 79.7% and the inhibition at 10 µM worked out at 85.8%.
